Data reported in PMC12764611 (Nature Communications, 2025).

Target: T1, IGFBP7 (endogenous, HK-2 cells, CETSA) (Homo sapiens, UniProt Q16270)
T1 sequence (Q16270 27-282): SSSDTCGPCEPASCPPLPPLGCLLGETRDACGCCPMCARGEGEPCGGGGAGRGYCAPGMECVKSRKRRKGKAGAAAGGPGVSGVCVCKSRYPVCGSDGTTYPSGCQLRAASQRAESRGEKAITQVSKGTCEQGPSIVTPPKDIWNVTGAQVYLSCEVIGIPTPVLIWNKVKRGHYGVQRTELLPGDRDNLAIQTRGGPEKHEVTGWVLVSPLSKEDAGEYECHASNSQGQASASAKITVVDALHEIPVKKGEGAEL
Assay: cellular thermal shift assay, immunoblot
Assay type: cell-based
Details: HK-2 cells with or without LA pretreatment, then lysed and heated

Compound: CN1c2c(nc(N)[nH]c2=O)NC[C@@H]1CNc1ccc(C(=O)N[C@@H](CCC(=O)O)C(=O)O)cc1 [levomefolic acid]
- cellular thermal shift assay, immunoblot: analysis showing the stabilisation of IGFBP7 in vitro, with or without LA treatment
